Assay results reported in patent US4440757A, “Pharmaceutical composition comprising derivative of aminobenzoic acid for regulating prostaglandin” (priority 1978, dated 1984).

Columns and labels:
dog's stomach = assay type: in vivo, Beagle dog; conditions: dog, in vivo
Protocol: Five grams of the present substance (each of Specimens Nos. 1, 2, 3, 4, 5, 6, 7, 8, 9, 10 and 11) and of aspirin were respectively administered to each Beagle of body weight of 9 to 12 kg as an aqueous suspension in distilled water of adjusted pH of 3, and after 90 min of the administration, the state of hemorrhage in the dog's stomach was examined.

[1] = tested on: Salmonella typhimurium TA 100; test: Mutagenicity, reversion assay, TA 100; assay type: cell-based; conditions: 5,000 μg/plate; control 149
Protocol: (ii) The strains TA 98 and TA 100 (both are histidine requiring) of Salmonella typhimurium were used in the reversion assay.
Into 2 ml of a soft agar culture medium (the medium itself contains 6 g of sodium chloride and 6 g of agar in 1000 ml of distilled water) to which one tenth by volume of an aqueous solution of 0.5 mM of biotin and 0.5 mM of histidine had been added, 0.1 ml of the bacterial suspension and 0.1 ml of an aqueous solution of the present substance were admixed and the mixture was layered on the minimum agar culture medium. After 2 days of incubation at 37° C., the number of revertant colonies was counted. Furylfuramide (AF-2) was used as the positive control.

male SHR rats = test: Blood pressure and 6-keto PGF1-α in blood of SHR after 14 days; assay type: in vivo, rat (SHR); conditions: 100 mg/kg/day p.o.; for Content of 6-keto-PGF1-α in blood: control 3; for Blood pressure: control 195
Protocol: After forcibly administering the present substance (Specimens Nos. 4, 7 and 8) every day for successive 14 days at a rate of 100 mg/kg/day by oral route to groups of male SHR rats, their whole blood was collected on 15th day to obtain the plasma fraction. The ether-extract of the plasma fraction was separated and isolated by thin-layer chromatography and after converting the isolated fraction into methyloximesilyl derivatives, the alteration of 6-keto PGF1-α was examined by gas-chromatography and mass-spectroscopy. In the group to which the present substance was administered, the content of 6-keto PGF1-α was larger together with the reduced blood pressure than in control. This parallelism of the effects leads to the presumption that the effect of the present invention is mediated by prostaglandin.

[2] = tested on: platelets (3 times concentrated PRP), cyclic AMP; test: Level of cyclic AMP in platelets; assay type: cell-based; conditions: room temperature, 5 min
Protocol: PRP (platelet rich plasma) was prepared by the predetermined method and it was centrifugated for 20 min at 700XG to obtain a supernatant liquid named PPP (platelet poor plasma). The precipitate was re-floated in 1/3 times by volume of PPP to prepare 3 times concentrated PRP.
In the thus prepared concentrated PRP, each aqueous solution of the present substances of a pre-determined concentration (in this case, Specimens Nos. 4, 7 and 8) and an aqueous physiological saline solution, and the mixture was incubated at room temperature for 5 min. Then, the procedures of boiling, homogenating and centrifugating were carried out in this order, and 50 μl of the supernatant liquid was used for measuring cyclic AMP. The measurement was carried out following the method of Gilman. As a positive control, PGE1 was used.

[3] = Acute oral toxicity (Litchfield-Wilcoxon); conditions: in vivo, mouse, 7 days
Protocol: The acute oral toxicity of the present substances were examined by using groups of ICR-JCL mouse and orally administering each of the representatives of present substances forcibly as an aqueous solution in distilled water or as an aqueous suspension also in distilled water at predetermined dosages, respectively. After observing the toxicological symptoms, if any, for 6 days, and recording the mortality until 7th day of the administration, LD50 (acute oral) was calculated by the method of Litchfield-Wilcoxon, and autopsy was carried out on dead mice and live mice to obtain informations.

Ehrlich cancer cells = test: Cyclic AMP and cyclic GMP in cancer cells of cancer-bearing mouse; assay type: in vivo, female ICR/JCL mice; conditions: 200 mg/kg/day i.p., 5 days
Protocol: Ehrlich cancer cells were transplanted into the abdominal cavity of female ICR/JCL mice after 5 weeks of birth at a rate of 1×10^6, cells/animal, and while feeding the mice, the present substance, Specimen No. 7, was intraperitoneally administered to the mice every day from the next day of transplantation for 5 days at a rate of 200 mg/kg/day. On the 6th day, the mice were sacrificed with ether to collect each 5 ml of ascites. After adding tetrasodium ethylenediamminetetraacetate into the thus collected ascites, the mixture was centrifugated for 10 min at a temperature of 4° C. and 1,500 rpm to separate the supernatant liquid and the cancer cells. The supernatant liquid was again centrifugated at 4° C. and 3,000 rpm for 15 min. The separated cancer cells were washed with Hank's solution and then subjected to repeated centrifugation for 5 times at 800 rpm for each 5 min to remove impurities such as erythrocytes, etc. After homogenizing 1×10^8 cells of the cancer in 3 ml of an aqueous 6% solution of trichloroacetic acid at a temperature of 0° C., the homogenate was centrifugated for 20 min at 3000XG to obtain a liquid extract. After adding 10% by weight of an aqueous 1 N solution of hydrochloric acid to the liquid extract, it was extracted 5 times with each two times by volume of ether to remove trichloroacetic acid. […]

[4] = tested on: sarcoma 180 tumour cells, cyclic AMP; test: Level of cyclic AMP in tumour cells of sarcoma 180; assay type: cell-based, mouse; conditions: room temperature, 5 min
Protocol: The present substance was added to 100 μl of the ascites-type tumour taken from the abdominal cavity of sarcoma 180-bearing mice to be a predetermined concentration, in this case, Specimen No. 7, and the mixture was incubated at room temperature for 5 min. After incubation, the culture was boiled, homogenized and centrifugated to obtain a supernatant liquid. The thus obtained supernatant liquid was subjected to the determination of cyclic AMP by the method of Gilman. […] The participation of the present substance in the metabolism of PGs is presumed also from this fact.

Row | Compound | hemorrhage in the stomach (dog's stomach) | Number of revertant colonies TA 100 [1] | Content of 6-keto-PGF1-α in blood (male SHR rats) | Blood pressure (male SHR rats) | level of intra-platelet cyclic AMP (FIG. 7) [2] | LD50 at 168 h [3] | GMP per 10^8 cancer cells (Ehrlich cancer cells; control 0.59) | Cyclic AMP per 10^8 cancer cells (Ehrlich cancer cells; control 19.5) | level of cyclic AMP in tumour cells (FIG. 10) [4]
1 | C[C@@H]1OC(Nc2ccc(C(=O)O)cc2)[C@H](O)[C@H](O)[C@H]1O (stereo partly drawn) [Specimen No. 8, Sodium p-aminobenzoate-N--L-rhamnoside] | no hemorrhage in the stomach was found | 73 number per plate | 7 ng/mL | 150 mmHg | raising the level of intra-platelet cellular cyclic AMP | 12800 mg/kg |  |  | 
2 | O=C(O)c1ccc(NC2OC[C@@H](O)[C@H](O)[C@H]2O)cc1 (stereo partly drawn) [Specimen No. 7, Sodium p-aminobenzoate-N--D-xyloside] | no hemorrhage in the stomach was found | 58 number per plate | 6.5 ng/mL | 160 mmHg | raising the level of intra-platelet cellular cyclic AMP | 11800 mg/kg | 0.72 pM | 21.2 pM | raising the level of cyclic AMP in the tumour cells of sarcoma 180
3 | O=C(O)c1ccc(NC2O[C@H](CO)[C@@H](O)[C@H](O)[C@@H]2O)cc1 (stereo partly drawn) [Specimen No. 4, Sodium p-aminobenzoate-N--D-mannoside] | no hemorrhage in the stomach was found | 138 number per plate | 7 ng/mL | 155 mmHg | raising the level of intra-platelet cellular cyclic AMP | > 10000 mg/kg |  |  | 
